The values that follow come from ChEMBL document CHEMBL5543168, “Discovery of Urea Derivatives of Celastrol as Selective Peroxiredoxin 1 Inhibitors against Colorectal Cancer Cells” (J Med Chem, 2024).

One data set deals with T1, Peroxiredoxin-1 (Homo sapiens, UniProt Q06830).
T1 sequence (Q06830 whole entry): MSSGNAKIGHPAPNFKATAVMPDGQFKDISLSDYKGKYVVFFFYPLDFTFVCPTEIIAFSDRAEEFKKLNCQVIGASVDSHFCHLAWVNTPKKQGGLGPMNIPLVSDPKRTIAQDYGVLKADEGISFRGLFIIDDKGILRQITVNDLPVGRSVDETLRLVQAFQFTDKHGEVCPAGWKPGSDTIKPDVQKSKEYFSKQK
In words: Inhibition of recombinant PRDX1 (unknown origin) using H2O2 as substrate preincubated for 0.5 hrs followed by substrate addition by TRX-TrxR-NADPH coupling assay.

Data set [1] deals with SW-620. Briefly: Inhibition of cell viability in human SW620 cells incubated for 72 hrs by Cell Titer Glo assay. The class given is functional, cell-based. As to conditions: SW-620, 72 h. A general note: Cellular ATP, detected with luciferase, serves as a proxy for viable cell number.
For another data set, the system named is HCT-116. Briefly: Inhibition of cell viability in human HCT-116 cells incubated for 72 hrs by Cell Titer Glo assay. The class given is functional, cell-based. As to conditions: HCT-116, 72 h.
The nature of data set [2]: Acute toxicity in C57BL/[…] 6J mouse assessed as animal death at 20 mg/kg, ip measured for 2 days. The class given is organism-based. As to conditions: in vivo, 48 h, time 2 day.
The nature of data set [3]: Acute toxicity in C57BL/[…] 6J mouse assessed as pathological change in heart at 20 mg/kg, ip measured for 2 weeks by H and E staining based analysis. Format: organism-based. The settings on record: in vivo, 336 h.
Data set [4] can be described thus: Acute toxicity in C57BL/[…] 6J mouse assessed as pathological change in liver at 20 mg/kg, ip measured for 2 weeks by H and E staining based analysis. Format: organism-based. The settings on record: in vivo, 336 h.
Data set [5] can be described thus: Acute toxicity in C57BL/[…] 6J mouse assessed as pathological change in spleen at 20 mg/kg, ip measured for 2 weeks by H and E staining based analysis. The class given is organism-based. The settings on record: in vivo, 336 h.
Data set [6] is described as follows: Acute toxicity in C57BL/[…] 6J mouse assessed as pathological change in kidney at 20 mg/kg, ip measured for 2 weeks by H and E staining based analysis. The class given is organism-based. As to conditions: in vivo, 336 h.
In data set [7] the test system is SW-620. In words: Antitumor activity against human SW620 cells xenografted in BALB/c nude mouse at 2 mg/kg, ip qd for 16 days relative to control. Format: functional. As to conditions: SW-620, 384 h, time 16 day, read-out: TGI. On the technique in general: In xenograft studies the graft and the host belong to different species.
A short description of data set [8]: Toxicity in BALB/c nude mouse xenografted with human SW620 cells assessed as body weight loss at 2 mg/kg, ip qd for 7 days. The class given is organism-based, SW-620. As to conditions: in vivo, 168 h, time 7 day.
The test system of data set [9] is SW-620. In words: cells. As to conditions: Homo sapiens, SW-620, 48 h, read-out: Activity.
Description: Induction of apoptosis in human SW620 cells assessed as viable cells at 0.5 uM incubated for 48 hrs by Annexin V-FITC/PI staining based flow cytometry (Rvb = 90.7 %)
For data set [10], the system named is SW-620. Briefly: cells. The settings on record: Homo sapiens, SW-620, 48 h, read-out: Activity. This is another data set of the same source.
Description: Induction of apoptosis in human SW620 cells assessed as viable cells at 1 uM incubated for 48 hrs by Annexin V-FITC/PI staining based flow cytometry (Rvb = 90.7 %)
Data set [11] relates to SW-620. In words: cells. As to conditions: Homo sapiens, SW-620, 48 h, read-out: Activity. The source holds these as a separate data set.
Description: Induction of apoptosis in human SW620 cells assessed as viable cells at 2 uM incubated for 48 hrs by Annexin V-FITC/PI staining based flow cytometry (Rvb = 90.7 %)

Regarding `CCOC(=O)C1(NC(=O)N[C@]2(C)CC[C@]3(C)CC[C@]4(C)C5=CC=C6C(=CC(=O)C(O)=C6C)[C@]5(C)CC[C@@]4(C)[C@@H]3C2)CC1`, the IC50 was found to be 360 nM on Peroxiredoxin-1, 350 nM in the data set with SW-620 [1] and 650 nM in the data set on HCT-116.

Consider `COC(=O)[C@@H]1C[C@@H](O)CN1C(=O)N[C@]1(C)CC[C@]2(C)CC[C@]3(C)C4=CC=C5C(=CC(=O)C(O)=C5C)[C@]4(C)CC[C@@]3(C)[C@@H]2C1`, for which the results for the IC50 on Peroxiredoxin-1, with SW-620 [1] and in the data set on HCT-116 were 360 nM, 260 nM and 440 nM, respectively.

As for `CC1=C(O)C(=O)C=C2C1=CC=C1[C@@]2(C)CC[C@@]2(C)[C@@H]3C[C@](C)(NC(=O)N[C@H]4CCOC4=O)CC[C@]3(C)CC[C@]12C`, the IC50 on Peroxiredoxin-1 amounted to 330 nM; with SW-620 [1] it was 480 nM; in the data set with HCT-116, 680 nM.

For the compound `COC(=O)[C@H](CCCCNC(=O)OC(C)(C)C)NC(=O)N[C@]1(C)CC[C@]2(C)CC[C@]3(C)C4=CC=C5C(=CC(=O)C(O)=C5C)[C@]4(C)CC[C@@]3(C)[C@@H]2C1`, the IC50 at Peroxiredoxin-1 was determined as 400 nM; with SW-620 [1] it was 330 nM; in the data set with HCT-116, 410 nM.

For `COC(=O)C1(NC(=O)N[C@]2(C)CC[C@]3(C)CC[C@]4(C)C5=CC=C6C(=CC(=O)C(O)=C6C)[C@]5(C)CC[C@@]4(C)[C@@H]3C2)COC1`, the IC50 at Peroxiredoxin-1 came to 380 nM; with SW-620 [1] it was 390 nM; with HCT-116 it was 800 nM.

As to `CC1=C(O)C(=O)C=C2C1=CC=C1[C@@]2(C)CC[C@@]2(C)[C@@H]3C[C@](C)(NC(=O)NCCOCCO)CC[C@]3(C)CC[C@]12C`, the IC50 at Peroxiredoxin-1 turned out to be 410 nM; with SW-620 [1], 790 nM; in the data set with HCT-116, 1000 nM.

`COC(=O)[C@@H]1CCCN1C(=O)N[C@]1(C)CC[C@]2(C)CC[C@]3(C)C4=CC=C5C(=CC(=O)C(O)=C5C)[C@]4(C)CC[C@@]3(C)[C@@H]2C1`: the IC50 amounted to 470 nM on Peroxiredoxin-1, 280 nM in the data set on SW-620 [1] and 230 nM in the data set on HCT-116.

Turning to `CC1=C(O)C(=O)C=C2C1=CC=C1[C@@]2(C)CC[C@@]2(C)[C@@H]3C[C@](C)(NC(=O)N[C@H](C)CO)CC[C@]3(C)CC[C@]12C`, the IC50 turned out to be 530 nM on Peroxiredoxin-1, 600 nM in the data set with SW-620 [1] and 840 nM with HCT-116.

Turning to `CC1=C(O)C(=O)C=C2C1=CC=C1[C@@]2(C)CC[C@@]2(C)[C@@H]3C[C@](C)(NC(=O)N[C@H]4C[C@H](CO)[C@H](O)C4)CC[C@]3(C)CC[C@]12C`, the 50% inhibitory concentration (IC50) on Peroxiredoxin-1 was found to be 460 nM; in the data set on SW-620 [1], 2100 nM; with HCT-116 it was 3100 nM.

Regarding `CC1=C(O)C(=O)C=C2C1=CC=C1[C@@]2(C)CC[C@@]2(C)[C@@H]3C[C@](C)(NC(=O)NC(CO)CO)CC[C@]3(C)CC[C@]12C`, the IC50 was 450 nM at Peroxiredoxin-1, 1900 nM with SW-620 [1] and 2700 nM in the data set on HCT-116.

On to `COC(=O)[C@@H](NC(=O)N[C@]1(C)CC[C@]2(C)CC[C@]3(C)C4=CC=C5C(=CC(=O)C(O)=C5C)[C@]4(C)CC[C@@]3(C)[C@@H]2C1)C(C)C`, for which the IC50 came out at 460 nM on Peroxiredoxin-1, 190 nM in the data set on SW-620 [1] and 340 nM in the data set with HCT-116.

In the case of `COC(=O)[C@H](CO)NC(=O)N[C@]1(C)CC[C@]2(C)CC[C@]3(C)C4=CC=C5C(=CC(=O)C(O)=C5C)[C@]4(C)CC[C@@]3(C)[C@@H]2C1`, the results for the IC50 at Peroxiredoxin-1, in the data set with SW-620 [1] and in the data set with HCT-116 were 470 nM, 640 nM and 740 nM, respectively.

For `COC(=O)[C@H](CCSC)NC(=O)N[C@]1(C)CC[C@]2(C)CC[C@]3(C)C4=CC=C5C(=CC(=O)C(O)=C5C)[C@]4(C)CC[C@@]3(C)[C@@H]2C1`, the IC50 was determined as 540 nM on Peroxiredoxin-1, 1400 nM in the data set with SW-620 [1] and 1800 nM with HCT-116.

Turning to `CC1=C(O)C(=O)C=C2C1=CC=C1[C@@]2(C)CC[C@@]2(C)[C@@H]3C[C@](C)(NC(=O)NC4(C(=O)O)COC4)CC[C@]3(C)CC[C@]12C`, the IC50 on Peroxiredoxin-1, with SW-620 [1] and with HCT-116 was over 20000 nM each time.

Regarding `CC1=C(O)C(=O)C=C2C1=CC=C1[C@@]2(C)CC[C@@]2(C)[C@@H]3C[C@](C)(NC(=O)N[C@@H](C)C(N)=O)CC[C@]3(C)CC[C@]12C`, the results for the IC50 at Peroxiredoxin-1, in the data set on SW-620 [1] and with HCT-116 were 310 nM, 420 nM and 560 nM, respectively.

For `CC1=C(O)C(=O)C=C2C1=CC=C1[C@@]2(C)CC[C@@]2(C)[C@@H]3C[C@](C)(C(=O)O)CC[C@]3(C)CC[C@]12C` [CELASTROL], the IC50 with SW-620 [1] is 670 nM; in the data set on HCT-116, 1400 nM. Besides, the Activity result in data set [2], in data set [3], in data set [4], in [5], in [6] and in [8] was “Toxic” in each case. The inhibition in vivo at 2 mg/kg in the data set on SW-620 [7] is 28%. Further, the viability at 0.5 µM in the data set on SW-620 [9] came to 87.4%. Moreover, in the data set on SW-620 [10], the viability at 1 µM worked out at 84.2%. Moreover, the viability at 2 µM with SW-620 [11] was found to be 27.4%.

On to `COC(=O)CC[C@H](NC(=O)N[C@]1(C)CC[C@]2(C)CC[C@]3(C)C4=CC=C5C(=CC(=O)C(O)=C5C)[C@]4(C)CC[C@@]3(C)[C@@H]2C1)C(=O)OC`, for which the results for the IC50 on Peroxiredoxin-1, with SW-620 [1] and in the data set with HCT-116 were 370 nM, 350 nM and 570 nM, respectively.

Consider `COC(=O)[C@@H](NC(=O)N[C@]1(C)CC[C@]2(C)CC[C@]3(C)C4=CC=C5C(=CC(=O)C(O)=C5C)[C@]4(C)CC[C@@]3(C)[C@@H]2C1)[C@@H](C)O`, for which the IC50 is 490 nM on Peroxiredoxin-1, 330 nM in the data set on SW-620 [1] and 800 nM with HCT-116.

Turning to `COC(=O)[C@H](C)NC(=O)N[C@]1(C)CC[C@]2(C)CC[C@]3(C)C4=CC=C5C(=CC(=O)C(O)=C5C)[C@]4(C)CC[C@@]3(C)[C@@H]2C1`, the IC50 came to 490 nM on Peroxiredoxin-1, 330 nM with SW-620 [1] and 800 nM in the data set on HCT-116.

Consider `COC(=O)CNC(=O)N[C@]1(C)CC[C@]2(C)CC[C@]3(C)C4=CC=C5C(=CC(=O)C(O)=C5C)[C@]4(C)CC[C@@]3(C)[C@@H]2C1`, for which the results for the IC50 on Peroxiredoxin-1, with SW-620 [1] and with HCT-116 were 640 nM, 490 nM and 830 nM, respectively.

In the case of `CC1=C(O)C(=O)C=C2C1=CC=C1[C@@]2(C)CC[C@@]2(C)[C@@H]3C[C@](C)(NC(=O)NC(CO)(CO)CO)CC[C@]3(C)CC[C@]12C`, the IC50 turned out to be 500 nM on Peroxiredoxin-1, 1100 nM with SW-620 [1] and 2500 nM in the data set with HCT-116.

Take `COC(=O)[C@H](Cc1ccc(O)cc1)NC(=O)N[C@]1(C)CC[C@]2(C)CC[C@]3(C)C4=CC=C5C(=CC(=O)C(O)=C5C)[C@]4(C)CC[C@@]3(C)[C@@H]2C1`: the IC50 on Peroxiredoxin-1 is 420 nM; in the data set on SW-620 [1], 220 nM; in the data set with HCT-116, 430 nM.

As to `COC(=O)[C@H](Cc1c[nH]c2ccccc12)NC(=O)N[C@]1(C)CC[C@]2(C)CC[C@]3(C)C4=CC=C5C(=CC(=O)C(O)=C5C)[C@]4(C)CC[C@@]3(C)[C@@H]2C1`, the IC50 on Peroxiredoxin-1 turned out to be 340 nM; in the data set on SW-620 [1], 310 nM; in the data set on HCT-116, 560 nM.

One may read the IC50 as the concentration needed to halve the response being measured.
